ChEMBL document CHEMBL3991601, “The target landscape of clinical kinase drugs” (Science, 2017)
Calls of active or inactive are those of the source. Rule as the data show it, for most assays here: actives have a measured Kd and inactives only a lower limit.

Key:
[1] = biological target: Serine/threonine-protein kinase PAK 4 (Homo sapiens, UniProt O96013)
[2] = biological target: Proto-oncogene tyrosine-protein kinase Src (Homo sapiens, UniProt P12931)
[3] = biological target: Tyrosine-protein kinase Lyn (Homo sapiens, UniProt P07948)
[4] = biological target: Ras-related protein Rab-6A (Homo sapiens, UniProt P20340)
[5] = biological target: T1, Serine/threonine-protein kinase 4 (Homo sapiens, UniProt Q13043)
T1 sequence (Q13043 whole entry): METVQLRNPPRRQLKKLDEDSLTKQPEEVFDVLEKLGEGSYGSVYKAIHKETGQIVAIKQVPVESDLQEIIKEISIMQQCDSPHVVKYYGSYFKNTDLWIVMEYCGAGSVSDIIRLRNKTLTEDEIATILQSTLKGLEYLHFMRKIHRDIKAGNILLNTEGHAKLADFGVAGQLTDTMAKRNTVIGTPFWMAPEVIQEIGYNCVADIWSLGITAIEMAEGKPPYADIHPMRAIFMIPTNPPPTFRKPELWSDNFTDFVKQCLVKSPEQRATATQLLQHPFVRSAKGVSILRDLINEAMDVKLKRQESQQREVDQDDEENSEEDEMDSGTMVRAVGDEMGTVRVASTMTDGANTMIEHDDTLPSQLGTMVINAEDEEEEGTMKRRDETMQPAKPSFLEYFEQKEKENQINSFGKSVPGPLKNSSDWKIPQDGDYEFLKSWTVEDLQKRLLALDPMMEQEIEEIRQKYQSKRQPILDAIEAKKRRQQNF

[6] = biological target: T2, Calcium/calmodulin-dependent protein kinase type IV (Homo sapiens, UniProt Q16566)
T2 sequence (Q16566 whole entry): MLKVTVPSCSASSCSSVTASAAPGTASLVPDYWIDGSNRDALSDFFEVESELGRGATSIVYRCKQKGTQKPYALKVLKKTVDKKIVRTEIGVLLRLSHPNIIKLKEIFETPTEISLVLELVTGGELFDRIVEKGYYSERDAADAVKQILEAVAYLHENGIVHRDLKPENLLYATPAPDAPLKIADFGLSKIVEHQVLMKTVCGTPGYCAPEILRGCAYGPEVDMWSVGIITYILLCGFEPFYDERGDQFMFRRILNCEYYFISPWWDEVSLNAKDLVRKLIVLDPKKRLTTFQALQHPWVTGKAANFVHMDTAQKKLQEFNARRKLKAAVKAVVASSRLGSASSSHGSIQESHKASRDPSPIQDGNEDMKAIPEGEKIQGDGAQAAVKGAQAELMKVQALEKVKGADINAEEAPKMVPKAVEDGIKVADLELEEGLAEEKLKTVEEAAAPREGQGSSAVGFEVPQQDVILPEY

[7] = biological target: T3, Mitogen-activated protein kinase kinase kinase 5 (Homo sapiens, UniProt Q99683)
T3 sequence (Q99683 whole entry): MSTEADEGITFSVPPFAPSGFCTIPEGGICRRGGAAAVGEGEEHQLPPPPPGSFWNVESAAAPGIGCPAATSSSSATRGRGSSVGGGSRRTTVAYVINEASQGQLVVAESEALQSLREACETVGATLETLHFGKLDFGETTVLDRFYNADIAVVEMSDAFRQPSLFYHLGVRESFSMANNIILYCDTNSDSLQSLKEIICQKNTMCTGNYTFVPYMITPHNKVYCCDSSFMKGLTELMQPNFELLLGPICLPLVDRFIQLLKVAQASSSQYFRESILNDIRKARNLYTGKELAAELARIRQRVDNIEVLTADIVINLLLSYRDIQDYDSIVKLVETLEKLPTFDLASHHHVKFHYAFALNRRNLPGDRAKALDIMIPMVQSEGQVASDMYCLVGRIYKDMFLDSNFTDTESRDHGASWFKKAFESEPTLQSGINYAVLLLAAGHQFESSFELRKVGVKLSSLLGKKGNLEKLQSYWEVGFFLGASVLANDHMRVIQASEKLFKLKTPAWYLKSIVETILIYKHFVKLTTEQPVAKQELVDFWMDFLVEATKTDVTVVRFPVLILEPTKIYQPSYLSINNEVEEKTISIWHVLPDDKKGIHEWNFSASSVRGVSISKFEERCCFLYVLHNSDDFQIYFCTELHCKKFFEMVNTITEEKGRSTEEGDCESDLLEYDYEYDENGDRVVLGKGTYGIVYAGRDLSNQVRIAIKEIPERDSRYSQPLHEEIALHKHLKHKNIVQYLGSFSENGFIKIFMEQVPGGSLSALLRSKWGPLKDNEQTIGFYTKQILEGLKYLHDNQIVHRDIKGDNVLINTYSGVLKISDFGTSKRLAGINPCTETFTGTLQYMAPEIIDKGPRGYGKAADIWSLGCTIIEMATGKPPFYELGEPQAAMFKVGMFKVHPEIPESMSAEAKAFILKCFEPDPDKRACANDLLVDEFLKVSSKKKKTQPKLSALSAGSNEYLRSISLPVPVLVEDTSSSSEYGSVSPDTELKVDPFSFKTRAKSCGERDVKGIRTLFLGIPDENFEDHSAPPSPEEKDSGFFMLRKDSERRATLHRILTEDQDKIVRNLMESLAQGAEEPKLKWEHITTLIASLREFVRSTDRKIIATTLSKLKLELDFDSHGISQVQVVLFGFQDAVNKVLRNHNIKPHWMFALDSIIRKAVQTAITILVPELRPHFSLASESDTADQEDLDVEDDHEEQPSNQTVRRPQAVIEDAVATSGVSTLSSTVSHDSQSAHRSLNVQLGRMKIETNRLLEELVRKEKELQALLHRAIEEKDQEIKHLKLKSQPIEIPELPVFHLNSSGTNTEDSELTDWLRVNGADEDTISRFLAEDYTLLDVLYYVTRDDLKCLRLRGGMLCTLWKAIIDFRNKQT

Scaffold protein ILK = biological target: T4, Scaffold protein ILK (Homo sapiens, UniProt Q13418)
T4 sequence (Q13418 whole entry): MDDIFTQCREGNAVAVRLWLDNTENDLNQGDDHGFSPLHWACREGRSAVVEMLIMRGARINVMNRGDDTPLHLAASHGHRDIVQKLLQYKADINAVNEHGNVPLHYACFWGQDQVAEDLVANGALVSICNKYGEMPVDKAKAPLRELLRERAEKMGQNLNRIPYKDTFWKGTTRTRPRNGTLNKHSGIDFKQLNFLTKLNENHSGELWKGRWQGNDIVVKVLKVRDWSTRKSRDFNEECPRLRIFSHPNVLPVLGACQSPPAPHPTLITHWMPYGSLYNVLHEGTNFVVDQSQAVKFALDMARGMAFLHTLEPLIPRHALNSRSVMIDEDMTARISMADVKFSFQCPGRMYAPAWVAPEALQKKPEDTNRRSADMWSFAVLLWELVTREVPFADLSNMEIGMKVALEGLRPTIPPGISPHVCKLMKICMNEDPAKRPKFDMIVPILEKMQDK
Also: in the data inactive means no Kd found up to 30 µM.

Sequence of Ras-related protein Rab-6A (P20340 whole entry): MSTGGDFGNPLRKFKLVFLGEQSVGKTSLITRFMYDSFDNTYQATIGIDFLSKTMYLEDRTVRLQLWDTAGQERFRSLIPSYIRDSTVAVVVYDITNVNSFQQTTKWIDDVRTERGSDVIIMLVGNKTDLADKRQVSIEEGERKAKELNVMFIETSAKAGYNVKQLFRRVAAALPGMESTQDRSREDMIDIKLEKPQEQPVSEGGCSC
Sequence of Proto-oncogene tyrosine-protein kinase Src (P12931 2-536 limits assumed): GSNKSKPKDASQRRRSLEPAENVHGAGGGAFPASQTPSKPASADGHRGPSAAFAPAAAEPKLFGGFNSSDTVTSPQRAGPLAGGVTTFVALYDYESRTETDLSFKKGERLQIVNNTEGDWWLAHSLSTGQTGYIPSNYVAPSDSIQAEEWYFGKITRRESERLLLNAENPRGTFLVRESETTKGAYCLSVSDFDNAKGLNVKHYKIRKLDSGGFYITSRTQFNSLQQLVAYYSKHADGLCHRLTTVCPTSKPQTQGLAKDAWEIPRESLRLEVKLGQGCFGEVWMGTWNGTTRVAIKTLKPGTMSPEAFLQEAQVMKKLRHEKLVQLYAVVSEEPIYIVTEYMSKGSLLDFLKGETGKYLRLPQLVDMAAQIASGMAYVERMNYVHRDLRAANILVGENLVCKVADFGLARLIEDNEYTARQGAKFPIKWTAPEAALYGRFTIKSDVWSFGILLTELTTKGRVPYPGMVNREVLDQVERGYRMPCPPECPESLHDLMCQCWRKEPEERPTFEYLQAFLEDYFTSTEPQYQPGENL
Sequence of Tyrosine-protein kinase Lyn (P07948 whole entry): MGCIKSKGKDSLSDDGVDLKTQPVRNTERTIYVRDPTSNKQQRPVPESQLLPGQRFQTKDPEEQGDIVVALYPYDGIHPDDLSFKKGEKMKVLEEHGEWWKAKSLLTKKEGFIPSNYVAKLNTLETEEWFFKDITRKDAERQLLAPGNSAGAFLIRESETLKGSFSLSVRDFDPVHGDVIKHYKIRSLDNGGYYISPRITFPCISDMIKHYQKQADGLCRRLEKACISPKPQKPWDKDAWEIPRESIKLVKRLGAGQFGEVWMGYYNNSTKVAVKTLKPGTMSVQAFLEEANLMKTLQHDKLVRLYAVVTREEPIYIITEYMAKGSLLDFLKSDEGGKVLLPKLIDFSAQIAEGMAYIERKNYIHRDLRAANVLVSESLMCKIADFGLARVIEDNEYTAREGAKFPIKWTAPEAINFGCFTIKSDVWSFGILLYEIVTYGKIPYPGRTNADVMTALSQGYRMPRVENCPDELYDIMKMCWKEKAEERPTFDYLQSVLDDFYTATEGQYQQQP
Sequence of Serine/threonine-protein kinase PAK 4 (O96013 whole entry): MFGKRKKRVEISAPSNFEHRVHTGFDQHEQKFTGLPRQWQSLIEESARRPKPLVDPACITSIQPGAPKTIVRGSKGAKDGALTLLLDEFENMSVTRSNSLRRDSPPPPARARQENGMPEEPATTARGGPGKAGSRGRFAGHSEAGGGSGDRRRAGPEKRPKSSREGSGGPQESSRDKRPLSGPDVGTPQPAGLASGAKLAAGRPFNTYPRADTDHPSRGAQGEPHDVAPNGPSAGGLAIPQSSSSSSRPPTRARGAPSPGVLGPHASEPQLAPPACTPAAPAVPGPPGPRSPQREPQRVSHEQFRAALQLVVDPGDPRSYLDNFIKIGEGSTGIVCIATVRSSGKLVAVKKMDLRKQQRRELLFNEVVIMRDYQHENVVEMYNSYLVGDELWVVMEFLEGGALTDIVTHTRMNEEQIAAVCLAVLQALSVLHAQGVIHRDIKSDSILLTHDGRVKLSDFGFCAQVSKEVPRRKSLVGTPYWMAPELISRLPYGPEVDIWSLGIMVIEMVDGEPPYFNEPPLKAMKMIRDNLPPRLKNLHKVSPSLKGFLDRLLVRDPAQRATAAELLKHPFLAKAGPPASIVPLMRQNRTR

SMILES | Kd [1] | Kd [2] | Kd [3] | Kd [4] | Kd [5] | Kd [6] | Kd [7] | Kd (Scaffold protein ILK)
Cc1c(NC(=O)OC[C@@H]2COCCN2)cn2ncnc(Nc3ccc4c(cnn4Cc4cccc(F)c4)c3)c12 [AC-480] | > 30 µM (inactive) | > 30 µM (inactive) | > 30 µM (inactive) | > 30 µM (inactive) | > 30 µM (inactive) | > 30 µM (inactive) | > 30 µM (inactive) | > 30 µM (inactive)
Cn1cc(-c2[nH]c3cc(NC(=O)[C@H](N)C4CCCCC4)cc4c3c2C=NNC4=O)cn1 | 0.053 µM (active) | 1.4 µM (active) | 0.331 µM (active) | > 30 µM (inactive) | > 30 µM (inactive) | > 30 µM (inactive) | > 30 µM (inactive) | > 30 µM (inactive)
COc1cc2ncnc(Nc3ccc(O)cc3)c2cc1OC [WHI-P131] | > 30 µM (inactive) | > 30 µM (inactive) | > 30 µM (inactive) | > 30 µM (inactive) | > 30 µM (inactive) | > 30 µM (inactive) | > 30 µM (inactive) | > 30 µM (inactive)
NC[C@@](O)(c1ccc(Cl)cc1)c1ccc(-c2cn[nH]c2)cc1 [AT-13148] | > 30 µM (inactive) | > 30 µM (inactive) | > 30 µM (inactive) |  | > 30 µM (inactive) | > 30 µM (inactive) | > 30 µM (inactive) | > 30 µM (inactive)
CNC(=O)c1cc(COc2nnc(Nc3ccc(Cl)cc3)c3ccoc23)ccn1 [TELATINIB] | > 30 µM (inactive) | > 30 µM (inactive) | > 30 µM (inactive) | > 30 µM (inactive) | > 30 µM (inactive) | > 30 µM (inactive) | > 30 µM (inactive) | 0.032 µM
CC(C)CC(=O)Nc1[nH]nc2c1CN(C(=O)C1CCN(C)CC1)C2(C)C [PHA-793887] | 0.864 µM (active) | > 30 µM (inactive) | > 30 µM (inactive) | > 30 µM (inactive) | > 30 µM (inactive) | > 30 µM (inactive) | > 30 µM (inactive) | > 30 µM (inactive)
CNC(=O)c1ccc(Nc2ncc(C(F)(F)F)c(NCc3nccnc3N(C)S(C)(=O)=O)n2)cc1 [DEFACTINIB] | 22 µM (active) | > 30 µM (inactive) | > 30 µM (inactive) | > 30 µM (inactive) | 2.45 µM (active) | > 30 µM (inactive) | > 30 µM (inactive) | > 30 µM (inactive)
CCc1nc(C(N)=O)c(Nc2ccc(N3CCC(N4CCN(C)CC4)CC3)c(OC)c2)nc1NC1CCOCC1 [GILTERITINIB] | > 30 µM (inactive) | > 30 µM (inactive) | > 30 µM (inactive) | > 30 µM (inactive) | > 30 µM (inactive) | 0.421 µM (active) | > 30 µM (inactive) | > 30 µM (inactive)
Cc1cc(-c2cc(OC(=O)c3ccccc3)ccc2Cl)cc2nnc(Nc3ccc(OCCN4CCCC4)cc3)nc12 [TG100-801] | > 30 µM (inactive) | > 30 µM (inactive) | > 30 µM (inactive) | > 30 µM (inactive) | > 30 µM (inactive) | > 30 µM (inactive) | > 30 µM (inactive) | > 30 µM (inactive)
FC(F)(F)c1ccc(CNc2ccc(Cc3c[nH]c4ncc(Cl)cc34)cn2)cn1 [PEXIDARTINIB] | > 30 µM (inactive) | > 30 µM (inactive) | > 30 µM (inactive) | > 30 µM (inactive) | > 30 µM (inactive) | > 30 µM (inactive) | > 30 µM (inactive) | > 30 µM (inactive)
O=c1[nH]c([C@@H]2CCCN2)nc2c1oc1ccc(Cl)cc12 | > 30 µM (inactive) | > 30 µM (inactive) | > 30 µM (inactive) |  | > 30 µM (inactive) | > 30 µM (inactive) | > 30 µM (inactive) | > 30 µM (inactive)
S=C(NCc1ccc2c(c1)OCO2)N1CCN(c2ncnc3c2oc2ccccc23)CC1 [AMUVATINIB] | > 30 µM (inactive) | > 30 µM (inactive) | > 30 µM (inactive) | > 30 µM (inactive) | > 30 µM (inactive) |  | > 30 µM (inactive) | > 30 µM (inactive)
C=CCN(/C=C1/C(=O)O[C@H](COC)[C@@]2(C)C1=C(O)C(=O)C1=C2[C@H](OC(C)=O)C[C@]2(C)C(=O)CC[C@@H]12)CC=C [SONOLISIB] | > 30 µM (inactive) | > 30 µM (inactive) | > 30 µM (inactive) |  | > 30 µM (inactive) | > 30 µM (inactive) | > 30 µM (inactive) | > 30 µM (inactive)

Further lines, results first:

Kd [1] | Kd [2] | Kd [3] | Kd [4] | Kd [5] | Kd [6] | Kd [7] | Kd (Scaffold protein ILK) | SMILES
> 30 µM (inactive) | > 30 µM (inactive) | > 30 µM (inactive) | > 30 µM (inactive) | > 30 µM (inactive) | > 30 µM (inactive) | > 30 µM (inactive) | > 30 µM (inactive) | NC(=O)c1ccc(N(C(N)=O)c2c(F)cccc2F)nc1-c1ccc(F)cc1F [VX-702]
1.88 µM (active) | > 30 µM (inactive) | > 30 µM (inactive) | > 30 µM (inactive) | 0.861 µM (active) | > 30 µM (inactive) | > 30 µM (inactive) | > 30 µM (inactive) | Cc1cc(Nc2nc(N[C@@H](C)c3ncc(F)cn3)ncc2Cl)n[nH]1 [AZD-1480]
> 30 µM (inactive) | 1.15 µM (active) | 0.887 µM (active) |  | > 30 µM (inactive) | > 30 µM (inactive) | > 30 µM (inactive) | > 30 µM (inactive) | COc1cccc(Nc2ncnn3ccc(CN4CC[C@@H](N)[C@H](O)C4)c23)c1 [BMS-690514]
